What was measured:
[1] = system: gastric acid production; details: cited from earlier work
[2] = lowering of blood pressure, in vivo testing; details: synthetic peptide; extended time period
[3] = in mammals; cited from earlier work
[4] = system: secretion of ACTH and β-endorphin; details: in mammals; cited from earlier work
[5] = system: secretion of ACTH and β-endorphin; assay: stimulation of ACTH and β-endorphin, background statements (in vitro and in vivo); details: synthetic peptide
[6] = system: cultured rat pituitary cells; assay: secretion of ACTH and β-endorphin by cultured rat pituitary cells; format: cell-based; details: cultured rat pituitary cells; read-out: concentration giving half-maximal responses, secretion of ACTH and β-endorphin

EC50 [6] [nM] | Compound | gastric acid production [1] | lowering of blood pressure [2] | biological activity in lowering blood pressure (reported) [3] | biological activity in stimulating the secretion of ACTH and β-endorphin (reported) [4] | stimulation of ACTH and β-endorphin activities [5]
~0.25 | CC[C@H](C)[C@H](NC(=O)[C@H](CC(=O)O)NC(=O)[C@H](CC(C)C)NC(=O)[C@H](CC(C)C)NC(=O)[C@H](CCCCN)NC(=O)[C@H](CCCNC(=N)N)NC(=O)[C@H](CC(N)=O)NC(=O)[C@H](CO)NC(=O)[C@H](Cc1c[nH]cn1)NC(=O)[C@H](C)NC(=O)[C@H](CCC(N)=O)NC(=O)[C@H](CCC(N)=O)NC(=O)[C@H](C)NC(=O)[C@H](CC(C)C)NC(=O)[C@H](CCC(N)=O)NC(=O)[C@H](CC(=O)O)NC(=O)[C@H](C)NC(=O)[C@H](CCCCN)NC(=O)[C@@H](NC(=O)[C@H](CCSC)NC(=O)[C@H](CCC(=O)O)NC(=O)[C@H](CC(C)C)NC(=O)[C@@H](NC(=O)[C@H](CCC(=O)O)NC(=O)[C@H](CCCNC(=N)N)NC(=O)[C@H](CC(C)C)NC(=O)[C@H](CC(C)C)NC(=O)[C@H](Cc1c[nH]cn1)NC(=O)[C@H](Cc1ccccc1)NC(=O)[C@@H](NC(=O)[C@H](CC(C)C)NC(=O)[C@H](CC(=O)O)NC(=O)[C@H](CC(C)C)NC(=O)[C@H](CO)NC(=O)[C@@H](NC(=O)[C@@H]1CCCN1C(=O)[C@@H]1CCCN1C(=O)[C@H](CCC(=O)O)NC(=O)[C@H](CCC(N)=O)NC(=O)[C@@H](N)CO)[C@@H](C)CC)[C@@H](C)O)C(C)C)[C@@H](C)O)C(=O)N[C@@H](C)C(N)=O [oCRF] | inhibits gastric acid production | substantially lower blood pressure for an extended time period | biological activity in lowering blood pressure in mammals | stimulating the secretion of ACTH and β-endorphin | stimulate ACTH and β-endorphin activities in vitro and in vivo
 | CC[C@H](C)[C@H](NC(=O)[C@@H](NC(=O)[C@H](CCC(=O)O)NC(=O)[C@H](CCSC)NC(=O)[C@H](CC(C)C)NC(=O)[C@H](CCCCN)NC(=O)[C@H](CCCNC(=N)N)NC(=O)[C@H](CC(N)=O)NC(=O)[C@H](CO)NC(=O)[C@H](Cc1c[nH]cn1)NC(=O)[C@H](C)NC(=O)[C@H](CCC(N)=O)NC(=O)[C@H](CCC(N)=O)NC(=O)[C@H](C)NC(=O)[C@H](CC(C)C)NC(=O)[C@H](CCC(N)=O)NC(=O)[C@H](CCC(=O)O)NC(=O)[C@H](C)NC(=O)[C@H](CCCNC(=N)N)NC(=O)[C@H](C)NC(=O)[C@H](CCSC)NC(=O)[C@H](CCC(=O)O)NC(=O)[C@H](CC(C)C)NC(=O)[C@@H](NC(=O)[C@H](CCC(=O)O)NC(=O)[C@H](CCCNC(=N)N)NC(=O)[C@H](CC(C)C)NC(=O)[C@H](CC(C)C)NC(=O)[C@H](Cc1c[nH]cn1)NC(=O)[C@H](Cc1ccccc1)NC(=O)[C@@H](NC(=O)[C@H](CC(C)C)NC(=O)[C@H](CC(=O)O)NC(=O)[C@H](CC(C)C)NC(=O)[C@H](CO)NC(=O)[C@@H](NC(=O)[C@@H]1CCCN1C(=O)[C@@H]1CCCN1C(=O)[C@H](CCC(=O)O)NC(=O)[C@H](CCC(=O)O)NC(=O)[C@@H](N)CO)[C@@H](C)CC)[C@@H](C)O)C(C)C)[C@@H](C)CC)C(N)=O [rCRF, reference compound] |  | substantially lower blood pressure for an extended time period |  |  | stimulate ACTH and β-endorphin activities in vitro and in vivo

Source: patent US4594329A, “CRF analogs” (The Salk Institute for Biological Studies, priority 1984, dated 1986)
